According to patent publication US10842845B2, “Oxytocin improves treatment of obstructive sleep apnea” (THE GEORGE WASHINGTON UNIVERSITY, priority 2014, dated 2020):
Entries after “also recorded” stand apart in the source; their conditions may differ.

Target: T1, DREADDs receptors on PVN OXT neurons (Homo sapiens, UniProt P20309, A239G/Y149C)
T1 construct: mCherry (C); host or cells: PVN oxytocin neurons of Sprague-Dawley rats, in vivo, transduced with AAV2-hSyn-DIO-hM3D(Gq)-mCherry and rAAV1-OXT-Cre
T1 sequence (P20309 whole entry Y149C/A239G, the tested form may be a part): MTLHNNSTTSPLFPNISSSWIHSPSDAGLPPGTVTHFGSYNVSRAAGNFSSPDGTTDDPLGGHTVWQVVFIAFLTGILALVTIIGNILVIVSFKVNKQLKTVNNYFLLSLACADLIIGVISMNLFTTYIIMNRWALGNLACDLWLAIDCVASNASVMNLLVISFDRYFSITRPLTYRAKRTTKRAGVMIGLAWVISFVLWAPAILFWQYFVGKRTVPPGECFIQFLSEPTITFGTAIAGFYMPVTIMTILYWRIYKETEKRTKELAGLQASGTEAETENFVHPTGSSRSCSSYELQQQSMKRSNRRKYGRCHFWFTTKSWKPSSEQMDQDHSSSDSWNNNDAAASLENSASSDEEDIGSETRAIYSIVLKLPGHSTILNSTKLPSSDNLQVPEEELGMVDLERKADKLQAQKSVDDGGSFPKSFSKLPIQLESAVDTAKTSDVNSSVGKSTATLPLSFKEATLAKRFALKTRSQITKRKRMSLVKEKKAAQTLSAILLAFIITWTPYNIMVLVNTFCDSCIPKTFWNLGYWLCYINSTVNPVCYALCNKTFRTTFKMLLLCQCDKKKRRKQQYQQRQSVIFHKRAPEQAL
Assay: Telemetry of resting blood pressure and heart rate before and after CNO injection
Type: in vivo, Sprague-Dawley rats
Source text: To record blood pressure and heart rate, male Sprague-Dawley rats, 3-4 weeks of age, were anesthetized using isoflurane (2-4%) and a HD-XII pressure transmitter was implanted (Data Sciences International, St Paul, Minn., USA) with its cathether inserted into the abdominal aorta to record pressure and EKG leads were attached subcutaneously to obtain EKG recordings and heart rate. All rats with telemetry devices were allowed 7-14 days to recover from transmitter implantation surgery before any measurements were recorded. Blood pressure and heart rate were recorded via radio-frequency signals obtained through the Ponemah data acquisition system (Data Sciences International). Baseline recordings of blood pressure and heart rate were obtained for 3 days prior to CIH/H exposure. Prior to, and during, the 28 day CIH/H exposure period daily baseline recordings of blood pressure and heart rate were recorded.
1-2 weeks after telemetry implantation, DREADDs receptors on PVN OXT neurons were activated daily by intraperitoneal (IP) injection of clozapine-n-oxide (CNO, 1.0 mg/kg). To investigate the effects of CNO on resting BP and HR in both DREADDs-expressing and sham animals, 3 days prior to CIH/H exposure (control days) baseline BP and HR values were recorded for a 20 min period before CNO injection. Animals from each group then received an IP injection of CNO, BP and HR were recorded for 1 hr, and the animals then underwent exposure to air for 8 hr to achieve acclimation to the chambers. During the 21 days of CIH/H exposure, baseline recordings of BP and HR were obtained before CNO injection, recorded for 1 hr post CNO injection, and for the entire duration of OHM exposure.
To examine the effects of CNO on and the chronic changes to mean arterial blood pressure (MAP) over the 21 days of OHM exposure, values were recorded before and after CNO injection on control days prior to CIH exposures, and days 1, 3, 6, 9, 12, 15, 18, and 21 of CIH/H. Changes within the DREADDs-expressing animals and the sham animals were statistically analyzed by one-way ANOVA with repeated-measures followed by Bonferroni's multiple comparison test. To examine the statistical changes in MAP between the two groups of animals, a two-way ANOVA with repeated-measures followed by Bonferroni's multiple comparison test was used. Data with p<0.05 were considered significant.
CNO administration had no effect on BP represented as mean arterial pressure (MAP) and HR in sham animals without DREADDs expression (FIGS. 10A and 10B). However, CNO administration that activates DREADDs receptors in PVN OXT neurons decreased resting HR and BP throughout 21 days of CIH/H exposure, with significant decreases in MAP (104±2.6 mmHg before CNO to 93±1.7 mmHg after CNO; n=8; ^+p<0.0001; paired t test; FIG. 10A) and HR (416±7.1 beats/min before CNO to 362±10.5 beats/min after CNO; n=8; ^+p<0.01; paired t test; FIG. 10B).

C[N+]1([O-])CCN(C2=Nc3cc(Cl)ccc3Nc3ccccc32)CC1 [CNO, clozapine-n-oxide]
change in HR after CNO injection (in words) (DREADDs-expressing animals, 45 min after CNO injection, n=8): significantly decreased | MAP after CNO (DREADDs-expressing animals, CNO 1.0 mg/kg IP, 104±2.6 mmHg before CNO, n=8): 93±1.7 mmHg | HR after CNO (DREADDs-expressing animals, CNO 1.0 mg/kg IP, 416±7.1 beats/min before CNO, n=8): 362±10.5 beats/min | change in resting MAP after CNO injection (in words) (oxytocin neuron activated (DREADDs-expressing) animals, 45 min after CNO injection, n=8): significantly decreased | effect of CNO on HR in sham animals without DREADDs expression (in words) (sham animals, n=7): no effect; also recorded: did not significantly change | effect of CNO on MAP in sham animals without DREADDs expression (in words) (sham animals, n=7): no effect; also recorded: did not significantly change
